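Growth conditions: 96-well plates. Treatment: test compound, 48 hours, 5 concentrations. Analysis: linear interpolation between bracketing concentrations; unreached endpoints set to highest concentration. GI50 = concentration required for 50% inhibition of growth. TGI denotes the concentration required for complete inhibition of growth.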
What was measured:
Test in all cases: inhibition of tumour cell growth, NCI panel, 48 h
SK-MEL-2 melanoma = test system: SK-MEL-2 melanoma
RXF 393 renal = test system: RXF 393 renal
SF-539 CNS = test system: SF-539 CNS
MDA-MB-231 breast = test system: MDA-MB-231 breast
IGROV1 ovarian = test system: IGROV1 ovarian
SNB-75 CNS = test system: SNB-75 CNS
NCI/ADR-RES ovarian = test system: NCI/ADR-RES ovarian
RPMI-8226 leukemia = test system: RPMI-8226 leukemia
MDA-MB-435 = test system: MDA-MB-435
OVCAR-5 ovarian = test system: OVCAR-5 ovarian
TK-10 renal = test system: TK-10 renal
A549 NSCLC = test system: A549 NSCLC
HS 578T breast = test system: HS 578T breast
HOP-92 NSCLC = test system: HOP-92 NSCLC
OVCAR-3 ovarian = test system: OVCAR-3 ovarian
UO-31 renal = test system: UO-31 renal
HCT-15 colon = test system: HCT-15 colon
COLO 205 colon = test system: COLO 205 colon
HCT-116 colon = test system: HCT-116 colon
PC-3 prostate = test system: PC-3 prostate
HT29 colon = test system: HT29 colon
LOX IMVI melanoma = test system: LOX IMVI melanoma
K-562 leukemia = test system: K-562 leukemia
MALME-3M melanoma = test system: MALME-3M melanoma
DU-145 prostate = test system: DU-145 prostate
MDA-MB-468 breast = test system: MDA-MB-468 breast
MOLT-4 leukemia = test system: MOLT-4 leukemia
HL-60(TB) leukemia = test system: HL-60(TB) leukemia
CAKI-1 renal = test system: CAKI-1 renal
OVCAR-8 ovarian = test system: OVCAR-8 ovarian
MCF7 breast = test system: MCF7 breast
CCRF-CEM leukemia = test system: CCRF-CEM leukemia
U251 CNS = test system: U251 CNS
SN12C renal = test system: SN12C renal
UACC-62 melanoma = test system: UACC-62 melanoma
NCI-H23 lung = test system: NCI-H23 lung
NCI-H522 lung = test system: NCI-H522 lung
SNB-19 CNS = test system: SNB-19 CNS
OVCAR-4 ovarian = test system: OVCAR-4 ovarian
SK-MEL-28 melanoma = test system: SK-MEL-28 melanoma
KM12 colon = test system: KM12 colon
A498 renal = test system: A498 renal
SF-295 CNS = test system: SF-295 CNS
SR leukemia = test system: SR leukemia
NCI-H226 lung = test system: NCI-H226 lung
786-0 renal = test system: 786-0 renal
T-47D breast = test system: T-47D breast
SK-OV-3 ovarian = test system: SK-OV-3 ovarian
HCC-2998 colon = test system: HCC-2998 colon
EKVX NSCLC = test system: EKVX NSCLC
HOP-62 NSCLC = test system: HOP-62 NSCLC
NCI-H460 lung = test system: NCI-H460 lung
BT-549 breast = test system: BT-549 breast
M14 melanoma = test system: M14 melanoma
SK-MEL-5 melanoma = test system: SK-MEL-5 melanoma
UACC-257 melanoma = test system: UACC-257 melanoma
SF-268 CNS = test system: SF-268 CNS
SW-620 colon = test system: SW-620 colon
ACHN renal = test system: ACHN renal

Compound: COc1nc(N)ncc1-c1ccc2ncnc(N3CCc4cc(F)c(Cl)cc43)c2c1
- GI50 (SK-MEL-2 melanoma): > 100 µM
- TGI (SK-MEL-2 melanoma): > 100 µM
- GI50 (RXF 393 renal): 1500 nM
- TGI (RXF 393 renal): 5.28 µM
- GI50 (SF-539 CNS): 2960 nM
- TGI (SF-539 CNS): 12.5 µM
- GI50 (MDA-MB-231 breast): 1840 nM
- TGI (MDA-MB-231 breast): 6.46 µM
- GI50 (IGROV1 ovarian): 594 nM
- TGI (IGROV1 ovarian): 3.82 µM
- GI50 (SNB-75 CNS): 1470 nM
- TGI (SNB-75 CNS): 4.02 µM
- GI50 (NCI/ADR-RES ovarian): 2730 nM
- TGI (NCI/ADR-RES ovarian): 15.7 µM
- GI50 (RPMI-8226 leukemia): 3.26 µM
- TGI (RPMI-8226 leukemia): > 100 µM
- GI50 (MDA-MB-435): 6.94 µM
- TGI (MDA-MB-435): > 100 µM
- GI50 (OVCAR-5 ovarian): 3.92 µM
- TGI (OVCAR-5 ovarian): > 100 µM
- GI50 (TK-10 renal): 703 nM
- TGI (TK-10 renal): 4.23 µM
- GI50 (A549 NSCLC): 2040 nM
- TGI (A549 NSCLC): 8.55 µM
- GI50 (HS 578T breast): 2000 nM
- TGI (HS 578T breast): 8.4 µM
- GI50 (HOP-92 NSCLC): 1810 nM
- TGI (HOP-92 NSCLC): 7.23 µM
- GI50 (OVCAR-3 ovarian): 2300 nM
- TGI (OVCAR-3 ovarian): 11.2 µM
- GI50 (UO-31 renal): 583 nM
- TGI (UO-31 renal): 3.99 µM
- GI50 (HCT-15 colon): 3.04 µM
- TGI (HCT-15 colon): 24.7 µM
- GI50 (COLO 205 colon): 3.37 µM
- TGI (COLO 205 colon): > 100 µM
- GI50 (HCT-116 colon): 2930 nM
- TGI (HCT-116 colon): 11.3 µM
- GI50 (PC-3 prostate): 10.6 µM
- TGI (PC-3 prostate): > 100 µM
- GI50 (HT29 colon): 7.86 µM
- TGI (HT29 colon): 52.2 µM
- GI50 (LOX IMVI melanoma): 3.11 µM
- TGI (LOX IMVI melanoma): 14.8 µM
- GI50 (K-562 leukemia): 6.45 µM
- TGI (K-562 leukemia): > 100 µM
- GI50 (MALME-3M melanoma): 8.68 µM
- TGI (MALME-3M melanoma): 49.4 µM
- GI50 (DU-145 prostate): 3.82 µM
- TGI (DU-145 prostate): 36.2 µM
- GI50 (MDA-MB-468 breast): 269 nM
- TGI (MDA-MB-468 breast): 1810 nM
- GI50 (MOLT-4 leukemia): 11.7 µM
- TGI (MOLT-4 leukemia): > 100 µM
- GI50 (HL-60(TB) leukemia): 3.08 µM
- TGI (HL-60(TB) leukemia): > 100 µM
- GI50 (CAKI-1 renal): 1200 nM
- TGI (CAKI-1 renal): 3.78 µM
- GI50 (OVCAR-8 ovarian): 2330 nM
- TGI (OVCAR-8 ovarian): 9.2 µM
- GI50 (MCF7 breast): 3.11 µM
- TGI (MCF7 breast): 22 µM
- GI50 (CCRF-CEM leukemia): 26 µM
- TGI (CCRF-CEM leukemia): > 100 µM
- GI50 (U251 CNS): 2300 nM
- TGI (U251 CNS): 7.74 µM
- GI50 (SN12C renal): 1920 nM
- TGI (SN12C renal): 10.1 µM
- GI50 (UACC-62 melanoma): 3.92 µM
- TGI (UACC-62 melanoma): 19.9 µM
- GI50 (NCI-H23 lung): 4.26 µM
- TGI (NCI-H23 lung): 39.1 µM
- GI50 (NCI-H522 lung): 2300 nM
- TGI (NCI-H522 lung): 11.5 µM
- GI50 (SNB-19 CNS): 2210 nM
- TGI (SNB-19 CNS): 12.2 µM
- GI50 (OVCAR-4 ovarian): 1870 nM
- TGI (OVCAR-4 ovarian): 4.28 µM
- GI50 (SK-MEL-28 melanoma): 5.2 µM
- TGI (SK-MEL-28 melanoma): 18.9 µM
- GI50 (KM12 colon): 10.4 µM
- TGI (KM12 colon): > 100 µM
- GI50 (A498 renal): 1540 nM
- TGI (A498 renal): 5.43 µM
- GI50 (SF-295 CNS): 2370 nM
- TGI (SF-295 CNS): 7.58 µM
- GI50 (SR leukemia): 3.09 µM
- TGI (SR leukemia): > 100 µM
- GI50 (NCI-H226 lung): 1150 nM
- TGI (NCI-H226 lung): 4.21 µM
- GI50 (786-0 renal): 1490 nM
- TGI (786-0 renal): 3.38 µM
- GI50 (T-47D breast): 1610 nM
- TGI (T-47D breast): 7.67 µM
- GI50 (SK-OV-3 ovarian): 1620 nM
- TGI (SK-OV-3 ovarian): 4.03 µM
- GI50 (HCC-2998 colon): 2790 nM
- TGI (HCC-2998 colon): 10.1 µM
- GI50 (EKVX NSCLC): 1930 nM
- TGI (EKVX NSCLC): 86.2 µM
- GI50 (HOP-62 NSCLC): 1470 nM
- TGI (HOP-62 NSCLC): 5.85 µM
- GI50 (NCI-H460 lung): 2650 nM
- TGI (NCI-H460 lung): 7.97 µM
- GI50 (BT-549 breast): 6.44 µM
- TGI (BT-549 breast): > 100 µM
- GI50 (M14 melanoma): 18.9 µM
- TGI (M14 melanoma): > 100 µM
- GI50 (SK-MEL-5 melanoma): 4.15 µM
- TGI (SK-MEL-5 melanoma): > 100 µM
- GI50 (UACC-257 melanoma): 8.26 µM
- TGI (UACC-257 melanoma): 83.6 µM
- GI50 (SF-268 CNS): 12.3 µM
- TGI (SF-268 CNS): > 100 µM
- GI50 (SW-620 colon): 4.26 µM
- TGI (SW-620 colon): > 100 µM
- GI50 (ACHN renal): 1210 nM
- TGI (ACHN renal): 4.22 µM
